Several values for one entry are separate records, joined by “and”; a condition that tells them apart may be missing. Identical values can stand only once. Toxic doses and inconclusive results are not listed.
System: CD2F1 mice, L1210 leukemia ip, survival T/C
Assay: NCI In Vivo Anticancer Drug Screen. Data for tumor model L1210 Leukemia (intraperitoneal) in CD2F1 (CDF1) mice
Conditions: higher = longer survival
Method in brief: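 Vehicle-treated tumor-bearing mice served as controls (C) for compound-treated mice (T). Reported figure is T divided by C.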

[1] = endpoint: mean survival time, dose: 12.5 mg/kg/injection, schedule: Q04DX003 (ip), vehicle: saline with Tween-80
[2] = endpoint: mean survival time, dose: 25.0 mg/kg/injection, schedule: Q04DX003 (ip), vehicle: saline with Tween-80
[3] = endpoint: mean survival time, dose: 50.0 mg/kg/injection, schedule: Q04DX003 (ip), vehicle: saline with Tween-80
[4] = endpoint: mean survival time, dose: 50.0 mg/kg/injection, schedule: Q01DX009 (ip), vehicle: saline with Tween-80
[5] = endpoint: mean survival time, dose: 100.0 mg/kg/injection, schedule: Q01DX009 (ip), vehicle: saline with Tween-80
[6] = endpoint: mean survival time, dose: 100.0 mg/kg/injection, schedule: Q04DX003 (ip), vehicle: saline with Tween-80
[7] = endpoint: mean survival time, dose: 200.0 mg/kg/injection, schedule: Q01DX009 (ip), vehicle: saline with Tween-80
[8] = endpoint: mean survival time, dose: 200.0 mg/kg/injection, schedule: Q04DX003 (ip), vehicle: saline with Tween-80
[9] = endpoint: mean survival time, dose: 100.0 mg/kg/injection, schedule: Q01DX001 (ip), vehicle: saline with Tween-80
[10] = endpoint: mean survival time, dose: 400.0 mg/kg/injection, schedule: Q04DX003 (ip), vehicle: saline with Tween-80
[11] = endpoint: mean survival time, dose: 6.25 mg/kg/injection, schedule: Q04DX003 (ip), vehicle: saline with Tween-80
[12] = endpoint: mean survival time, dose: 50.0 mg/kg/injection, schedule: Q04DX003 (ip), vehicle: saline
[13] = endpoint: mean survival time, dose: 200.0 mg/kg/injection, schedule: Q01DX001 (ip), vehicle: saline with Tween-80
[14] = endpoint: mean survival time, dose: 400.0 mg/kg/injection, schedule: Q01DX001 (ip), vehicle: saline with Tween-80

## O=C1C=CC(=O)N1c1ccccc1N1C(=O)C=CC1=O
endpoint: mean survival time, dose: 1.25 mg/kg/injection, schedule: Q01DX009 (ip), vehicle: Klucel (hydroxypropylcellulose) (HPC)
  T/C: 90 % of control
endpoint: mean survival time, dose: 2.5 mg/kg/injection, schedule: Q01DX009 (ip), vehicle: Klucel (hydroxypropylcellulose) (HPC)
  T/C: 94 % of control

## CC1COC(Nc2cccc3c2CCCC3)=N1 (stereo not drawn)
[1]
  T/C: 97 % of control
[2]
  T/C: 97 % of control
[3]
  T/C: 97 % of control

## Nc1nc2ncccc2[nH]1
endpoint: mean survival time, dose: 12.5 mg/kg/injection, schedule: Q01DX005 (ip), vehicle: other
  T/C: 108 % of control
endpoint: mean survival time, dose: 25.0 mg/kg/injection, schedule: Q01DX005 (ip), vehicle: other
  T/C: 107 % of control
endpoint: mean survival time, dose: 50.0 mg/kg/injection, schedule: Q01DX005 (ip), vehicle: other
  T/C: 104 % of control
endpoint: mean survival time, dose: 100.0 mg/kg/injection, schedule: Q01DX005 (ip), vehicle: other
  T/C: 101 % of control
endpoint: mean survival time, dose: 200.0 mg/kg/injection, schedule: Q01DX005 (ip), vehicle: other
  T/C: 103 % of control

## N#CC(=C1C=CC(=NO)C=C1)c1ccccc1
[4]
  T/C: 93 % of control
[5]
  T/C: 100 % of control
[6]
  T/C: 97 % of control
[7]
  T/C: 100 % of control
[8]
  T/C: 96 % of control

## C=Cc1nnnn1C12CC3CC(CC(C3)C1)C2
endpoint: mean survival time, dose: 50.0 mg/kg/injection, schedule: Q01DX001 (ip), vehicle: saline with Tween-80
  T/C: 106 % of control
[9]
  T/C: 112 % of control

## O=C1C=C(C2CCCCC2)C(=O)c2ccccc21
[5]
  T/C: 88 % of control
[6]
  T/C: 98 % of control
[7]
  T/C: 91 % of control
[8]
  T/C: 92 % of control
endpoint: mean survival time, dose: 400.0 mg/kg/injection, schedule: Q01DX009 (ip), vehicle: saline with Tween-80
  T/C: 95 % of control
[10]
  T/C: 95 % of control

## CC(=O)CC(=O)Nc1ccc(N=Nc2ccccc2)cc1
[5]
  T/C: 101 % of control
[7]
  T/C: 101 % of control

## CCCCCCCCCC(=O)CCCCC
endpoint: mean survival time, dose: 100.0 mg/kg/injection, schedule: Q04DX003 (ip), vehicle: other
  T/C: 89 % of control
endpoint: mean survival time, dose: 200.0 mg/kg/injection, schedule: Q04DX003 (ip), vehicle: other
  T/C: 94 % of control
endpoint: mean survival time, dose: 400.0 mg/kg/injection, schedule: Q04DX003 (ip), vehicle: other
  T/C: 103 % of control

## O=P(N1CCOCC1)(N1CC1)N1CC1
endpoint: mean survival time, dose: 1.56 mg/kg/injection, schedule: Q01DX009 (ip), vehicle: saline
  T/C: 103 % of control
endpoint: mean survival time, dose: 3.12 mg/kg/injection, schedule: Q01DX009 (ip), vehicle: saline
  T/C: 111 % of control
endpoint: mean survival time, dose: 12.5 mg/kg/injection, schedule: Q01DX009 (ip), vehicle: saline
  T/C: 180 % of control

## O=C(CCl)NC(=O)CCl
endpoint: mean survival time, dose: 25.0 mg/kg/injection, schedule: Q01DX009 (ip), vehicle: saline sonified
  T/C: 90 % of control
endpoint: mean survival time, dose: 50.0 mg/kg/injection, schedule: Q01DX009 (ip), vehicle: saline sonified
  T/C: 104 % of control
endpoint: mean survival time, dose: 100.0 mg/kg/injection, schedule: Q01DX009 (ip), vehicle: saline sonified
  T/C: 90 % of control

## COc1ccc(OC)c(NC(=O)OCC(F)(F)F)c1
[4]
  T/C: 97 % of control
[7]
  T/C: 103 % of control

## CCCCCCCCCCCCCCCC(=O)N(C/C=C/CN(CCCN(C)C)C(=O)CCCCCCCCCCCCCCC)CCCN(C)C
endpoint: mean survival time, dose: 6.25 mg/kg/injection, schedule: Q01DX009 (ip), vehicle: saline with Tween-80
  T/C: 92 % of control
[11]
  T/C: 95 % of control
endpoint: mean survival time, dose: 12.5 mg/kg/injection, schedule: Q01DX009 (ip), vehicle: saline with Tween-80
  T/C: 93 % of control
[1]
  T/C: 93 % of control
endpoint: mean survival time, dose: 25.0 mg/kg/injection, schedule: Q01DX009 (ip), vehicle: saline with Tween-80
  T/C: 94 % of control
[2]
  T/C: 98 % of control

## O.[Cl][Pt].[S-]CCN1CCOCC1
endpoint: mean survival time, dose: 12.5 mg/kg/injection, schedule: Q04DX003 (ip), vehicle: distilled water + Tween-80
  T/C: 96 % of control
endpoint: mean survival time, dose: 25.0 mg/kg/injection, schedule: Q04DX003 (ip), vehicle: distilled water + Tween-80
  T/C: 98 % of control
endpoint: mean survival time, dose: 50.0 mg/kg/injection, schedule: Q04DX003 (ip), vehicle: distilled water + Tween-80
  T/C: 102 % of control
endpoint: mean survival time, dose: 100.0 mg/kg/injection, schedule: Q04DX003 (ip), vehicle: distilled water + Tween-80
  T/C: 98 % of control
endpoint: mean survival time, dose: 200.0 mg/kg/injection, schedule: Q04DX003 (ip), vehicle: distilled water + Tween-80
  T/C: 96 % of control

## CC(C)OC(=O)Nc1ccc(F)c(C(F)(F)F)c1
[6]
  T/C: 96 % of control
[8]
  T/C: 96 % of control
[10]
  T/C: 94 % of control

## CC(=O)C(Cl)C(C)=O.CC(=O)C(Cl)C(C)=O.CO.CO.[Ni]
[12]
  T/C: 108 % of control

## Cc1cc(C)[nH]c(=S)n1.[Pt]
endpoint: mean survival time, dose: 3.12 mg/kg/injection, schedule: Q04DX003 (ip), vehicle: saline with Tween-80
  T/C: 104 % of control
endpoint: mean survival time, dose: 3.12 mg/kg/injection, schedule: Q04DX003 (ip), vehicle: saline
  T/C: 120 % of control and 108 % of control
[11]
  T/C: 102 % of control
endpoint: mean survival time, dose: 6.25 mg/kg/injection, schedule: Q04DX003 (ip), vehicle: saline
  T/C: 117 % of control and 96 % of control
[1]
  T/C: 101 % of control
endpoint: mean survival time, dose: 12.5 mg/kg/injection, schedule: Q04DX003 (ip), vehicle: saline
  T/C: 96 % of control
[2]
  T/C: 98 % of control
endpoint: mean survival time, dose: 25.0 mg/kg/injection, schedule: Q04DX003 (ip), vehicle: saline
  T/C: 102 % of control
[3]
  T/C: 101 % of control
[12]
  T/C: 96 % of control and 97 % of control
[6]
  T/C: 101 % of control
endpoint: mean survival time, dose: 100.0 mg/kg/injection, schedule: Q04DX003 (ip), vehicle: saline
  T/C: 120 % of control and 96 % of control
[8]
  T/C: 107 % of control
endpoint: mean survival time, dose: 200.0 mg/kg/injection, schedule: Q04DX003 (ip), vehicle: saline
  T/C: 106 % of control

## COc1ccc(C(=S)c2ccc(OC)cc2)cc1
[9]
  T/C: 101 % of control
[13]
  T/C: 96 % of control
[14]
  T/C: 101 % of control

## O=C(OC(CC[P+](c1ccccc1)(c1ccccc1)c1ccccc1)(C(=O)c1ccccc1)c1ccccc1)c1ccccc1 (stereo not drawn)
endpoint: mean survival time, dose: 0.38 mg/kg/injection, schedule: Q01DX009 (ip), vehicle: saline
  T/C: 104 % of control
endpoint: mean survival time, dose: 0.75 mg/kg/injection, schedule: Q01DX009 (ip), vehicle: saline
  T/C: 105 % of control
endpoint: mean survival time, dose: 1.5 mg/kg/injection, schedule: Q01DX009 (ip), vehicle: saline
  T/C: 93 % of control

## O=S(=O)(Nc1cccc(NS(=O)(=O)c2ccccc2)n1)c1ccccc1
[6]
  T/C: 92 % of control
[8]
  T/C: 102 % of control
[10]
  T/C: 92 % of control

## Nc1c(Cl)cc(Cl)c(-c2c(Cl)cc(Cl)c(N)c2Cl)c1Cl
endpoint: mean survival time, dose: 12.5 mg/kg/injection, schedule: Q01DX009 (ip), vehicle: other
  T/C: 100 % of control
endpoint: mean survival time, dose: 25.0 mg/kg/injection, schedule: Q01DX009 (ip), vehicle: other
  T/C: 101 % of control
endpoint: mean survival time, dose: 50.0 mg/kg/injection, schedule: Q01DX009 (ip), vehicle: other
  T/C: 101 % of control
endpoint: mean survival time, dose: 100.0 mg/kg/injection, schedule: Q01DX009 (ip), vehicle: other
  T/C: 97 % of control
endpoint: mean survival time, dose: 200.0 mg/kg/injection, schedule: Q01DX009 (ip), vehicle: other
  T/C: 94 % of control

## O=C(Nc1ccc(Cl)cc1)c1cc(Br)ccc1O
[6]
  T/C: 92 % of control
[8]
  T/C: 88 % of control
[10]
  T/C: 92 % of control

## CCC1(C)CCC2C(=CCC3C(C)(C(=O)OC)CCCC23C)C1 (stereo not drawn)
[9]
  T/C: 94 % of control
[13]
  T/C: 92 % of control
[14]
  T/C: 94 % of control

## CCOC(=O)Nc1cc(N)c2n[nH]nc2n1
endpoint: mean survival time, dose: 100.0 mg/kg/injection, schedule: Q01DX001 (ip), vehicle: carboxymethylcellulose (CMC)
  T/C: 100 % of control
endpoint: mean survival time, dose: 200.0 mg/kg/injection, schedule: Q01DX001 (ip), vehicle: carboxymethylcellulose (CMC)
  T/C: 98 % of control
endpoint: mean survival time, dose: 400.0 mg/kg/injection, schedule: Q01DX001 (ip), vehicle: carboxymethylcellulose (CMC)
  T/C: 102 % of control

## Nc1ncnc2nc(C(O)C(O)C(O)C(O)CO)[nH]c12 (stereo not drawn)
endpoint: median survival time, dose: 12.5 mg/kg/injection, schedule: Q01DX005 (ip), vehicle: distilled water + Tween-80
  T/C: 98 % of control
endpoint: median survival time, dose: 25.0 mg/kg/injection, schedule: Q01DX005 (ip), vehicle: distilled water + Tween-80
  T/C: 98 % of control
endpoint: median survival time, dose: 50.0 mg/kg/injection, schedule: Q01DX005 (ip), vehicle: distilled water + Tween-80
  T/C: 100 % of control
endpoint: median survival time, dose: 100.0 mg/kg/injection, schedule: Q01DX005 (ip), vehicle: distilled water + Tween-80
  T/C: 97 % of control
endpoint: median survival time, dose: 200.0 mg/kg/injection, schedule: Q01DX005 (ip), vehicle: distilled water + Tween-80
  T/C: 98 % of control

— PubChem BioAssay AID256 (DTP/NCI, 2004)
